Data taken from paper PMC9977398, “Next-generation membrane-active glycopeptide antibiotics that also inhibit bacterial cell division” (Chemical Science, 2023).

Legend:
[1] = test system: B. subtilis 1981 GFP-MinD; assay: GFP-MinD localization; assay type: cell-based; details: treatment at the PEC, 15 min
Source text: MinD is a peripheral membrane protein that localizes at the cell poles and is part of the cell division regulation machinery. It has been reported that treatment with membrane-depolarizing agents like valinomycin results in the delocalization of the protein which appears in irregularly distributed spots throughout the cell. Since the compounds depolarise the bacterial membrane, their effect on the localization of the GFP-tagged MinD protein of B. subtilis was investigated. […]
resuspended in prewarmed BMM media. 1:1 BAC light dye was then added to the bacterial suspension and incubated for 5 minutes. The fluorescence in the GFP and Texas red channels was then observed under the microscope. The experiments were performed three times independently and the images are representative of results from three independent experiments.
B. subtilis 1981 GFP-MinD was cultured overnight in BMM.8 Cells were then inoculated in xylose containing BMM instead of glucose to an OD500 of 0.1 to induce expression of the GFP-MinD fusion protein. […]
About 6 μl of sample was immobilized on 1% agarose pad . DIC and fluorescence images were obtained at different time intervals using Nikon Eclipse Ti Microscope equipped with Nikon DS-U3 camera through Plan Apo 100×/1.40 oil objective. […]

[2] = test system: MRSA; assay: Frequency of resistance; assay type: cell-based, S. aureus
Source text: Having observed the multiple mechanisms of VanQAmC10, the potential as a preclinical candidate was examined. […] The frequency of resistance for both vancomycin and VanQAmC10 against MRSA was <10^−8 indicating the absence of spontaneous mutants.

[3] = test system: biofilms of MRSA; assay: Disruption of mature biofilms, confocal microscopy; assay type: cell-based, S. aureus; details: 20 μM; for thickness of biofilm after treatment: 24 h, untreated 11.8 μm
Source text: Another growing challenge in treating bacterial infections is the formation of biofilms, which are recalcitrant to antibiotic treatment.[29] Most antibiotics including vancomycin are rendered ineffective against biofilms consisting of both dividing and non-dividing cells, majorly due to their inability to penetrate through the extracellular polymeric matrix. Thus, it is important to develop compounds that eradicate biofilms as well as planktonic cells. Untreated biofilms of MRSA grew to a thickness of 11.8 μm (Fig. S3A ^†). The vancomycin-treated biofilms remained intact with thickness similar to the untreated control. […]
were added to it the wells containing bacterial suspension. Fluorescence has monitored at excitation wavelength of 535 nm (slit width: 10 nm) and emission wavelength of 617 nm (slit width: 5 nm). As a measure of inner membrane permeabilization the uptake of PI was monitor by the increase in fluorescence for 30-50 min. For assessing depolarisation against stationary phase cells of MRSA ATCC 33591, cells were grown to the stationary phase for 16 h. The culture was then diluted to an OD600 of 0.2 and the depolarisation assays was performed as described. The experiments were performed three times independently in duplicates and the graph is representative of the results from all experiments.
Cytoplasmic membrane depolarization assay5
Mid log phase MRSA were harvested (3500 rpm, 5 min), washed in 5 mM glucose and 5 mM HEPES buffer (pH 7.2) in 1:1 ratio and resuspended in 5 mM HEPES buffer, 5 mM glucose and 100 mM KCl solution in 1:1:1 ratio. Then 2 μM of 3, 3′-Dipropylthiadicarbocyanine iodide (DiSC3(5)) was added to bacterial suspension and pre-incubated for 45 min. The fluorescence was monitored at excitation wavelength of 622 nm and emission wavelength of 670 nm. Then 20 μL of test compound and vancomycin were added to black well plates containing bacterial suspension and DiSC3(5) after 2-4 min of fluorescence measurement. As a measure of membrane depolarization fluorescence was monitor for another 35 min. […]

SMILES | localization of GFP-MinD [1] | frequency of resistance [2] | thickness of biofilm after treatment [3] [μm] | reduction of thickness of biofilms ([3]; mature MRSA biofilm)
CCCCCCCCCCNC(=O)C[N+](C)(C)CCCNC(=O)C1NC(=O)C2NC(=O)C(NC(=O)C3NC(=O)C(CC(N)=O)NC(=O)C(NC(=O)C(CC(C)C)NC)C(O)c4ccc(c(Cl)c4)Oc4cc3cc(c4OC3OC(CO)C(O)C(O)C3OC3CC(C)(N)C(O)C(C)O3)Oc3ccc(cc3Cl)C2O)c2ccc(O)c(c2)-c2c(O)cc(O)cc21 (stereo not shown) [VanQAmC10 (8)] | irregular distribution of GFP-labelled MinD across the cells | < 10^−8 | 7.4 | about 40%
CN[C@H](CC(C)C)C(=O)N[C@H]1C(=O)N[C@@H](CC(N)=O)C(=O)N[C@H]2C(=O)N[C@H]3C(=O)N[C@H](C(=O)N[C@H](C(=O)O)c4cc(O)cc(O)c4-c4cc3ccc4O)[C@H](O)c3ccc(c(Cl)c3)Oc3cc2cc(c3O[C@@H]2O[C@H](CO)[C@@H](O)[C@H](O)[C@H]2O[C@H]2C[C@](C)(N)[C@H](O)[C@H](C)O2)Oc2ccc(cc2Cl)[C@H]1O [Vancomycin, reference compound] |  | < 10^−8 | 10.1 | 
CNC(CC(C)C)C(=O)NC1C(=O)NC(CC(N)=O)C(=O)NC2C(=O)NC3C(=O)NC(C(=O)NC(C(=O)NCCC[N+](C)(C)Cc4ccc(-c5ccccc5)cc4)c4cc(O)cc(O)c4-c4cc3ccc4O)C(O)c3ccc(c(Cl)c3)Oc3cc2cc(c3OC2OC(CO)C(O)C(O)C2OC2CC(C)(N)C(O)C(C)O2)Oc2ccc(cc2Cl)C1O (stereo not shown) [VanQbiph (4)] | irregular distribution of GFP-labelled MinD across the cells |  |  | 
